Assay results as given in patent US20130281313A1, “PROGNOSTIC AND/OR PREDICTIVE BIOMARKERS AND BIOLOGICAL APPLICATIONS THEREOF” (INSTITUT GUSTAVE ROUSSY, priority 2010, published 2013).

Experiments:
A549 cells [1] = experiment: Cytofluorometric assessment of cell death (DiOC6(3)/PI co-staining); assay type: cell-based, human; conditions: A549 cells, followed by CDDP; DiOC6(3)/PI co-staining
Experimental: Unless otherwise specified, chemicals were purchased from Sigma-Aldrich (St. Louis, USA), culture media and supplements for cell culture from Gibco-Invitrogen (Carlsbad, USA) and plasticware from Corning (Corning, USA). […] Orlistat (Xenical®) was obtained from Roche (Basel, Switzerland). […] Undissolved material was removed by two sequential rounds of centrifugation at 12,000 G (5 min, room temperature, RT), supernatants were collected and stored at −80° C. under protection from light until use. In low-throughput experiments, all cell lines were treated with 2.5 mM pyridoxine (PN), exception made for A549 cells that received 5 mM PN.
To avoid depleting the siRNA library of selected sequences, siRNAs for validation experiments were purchased as custom molecules from Sigma-Aldrich. For low-throughput experiments, (see below for the transfection protocols employed in the siRNA screen), siRNA were transfected in A549 cells with Oligofectamine™ reagent (Invitrogen), following the manufacturer's instructions. Transfection with a non-targeting siRNA (siUNR) was employed as a negative control condition. Forty-eight hours after transfection, siRNA-mediated target downregulation was assessed by immunoblotting (see below).
All cytofluorometric determinations were carried out a FACSCalibur or a FACScan cytofluorometer (BD Biosciences, San Jose, USA) equipped with a 70 μm nozzle.
First line statistical analysis of cytofluorometric results was performed by using the CellQuest™ software (BD Biosciences), by gating on the events characterized by normal forward scatter and side scatter parameters. Apoptosis- and cell cycle-related data were further analyzed with Microsoft Excel (Microsoft Co., Redmond, USA) and statistical significance was assessed by means of two-tailed Student's t test (p<0.05).

A549 cells [2] = experiment: Transcriptome studies (mRNA microarrays); assay type: cell-based, human
Experimental: NSCLC A549 cells were treated with 100 μM CDDP, 75 μM C2-CER or 100 μM CdCl2 for 12 h, or with 50 μM CDDP, C2-CER or CdCl2 for 24 h. Thereafter, cells were collected and lysed for RNA extraction of following established procedures {de La Motte Rouge, 2007}. mRNA expression changes were quantified on G4112A 44 k Whole Human Genome Oligo Microarrays (Agilent Technologies, Santa Clara, USA), as previously reported {Castedo, 2006}. mRNA microarrays underwent standardized post-hybridization processing, image acquisition and analysis (see below) {Castedo, 2006}.
Data from microarray experiments were analyzed with the Rosetta Resolver® System (Rosetta Biosoftware, Seattle, USA). The threshold for statistical significance of probe signals (Intensity) was set at p=10^−5. […] For each mRNA, fold change (FC) was then defined as Intensitysample/Intensitycontrol when Intensitysample>Intensitycontrol, or as—(Intensitycontrol/Intensitysample) when Intensitysample<Intensitycontrol. Ratios were calculated as Intensitysample/Intensitycontrol.

[3] = 12 h, 100 μM CDDP, 75 μM C2-CER or 100 μM CdCl2, vs untreated cells
[4] = 24 h, 50 μM CDDP, C2-CER or CdCl2, vs untreated cells

CCCCCCCCCCCCCCC(Br)C(=O)O (stereo not shown) [2-bromopalmitate]
epistatic interaction on CDDP-induced cell death, ZDHHC9 inhibition (2-bromopalmitate) combined with IL6R blockade (extracellular antibody) (A549 cells [1]): no significant epistatic interaction

CCCCCCCCCCCCC/C=C/[C@@H](O)[C@H](CO)NC(C)=O [C2-CER, C2-ceramide]
Fold change, ADAR (NM_001111) transcript (A549 cells [2]; [3]): n.s.
Fold change, ALDH7AT (NM_001182) transcript (A549 cells [2]; [3]): −1.85
Fold change, CD151 (NM_004357) transcript (A549 cells [2]; [3]): n.s.
Fold change, CLIC1 (NM_001288) transcript (A549 cells [2]; [3]): n.s.
Fold change, COMMO9 (NM_014186) transcript (A549 cells [2]; [3]): n.s.
Fold change, COX5B (NM_001802) transcript (A549 cells [2]; [3]): −1.62
Fold change, COX7C (NM_001867) transcript (A549 cells [2]; [3]): −1.33
Fold change, DHRSX (NM_145177) transcript (A549 cells [2]; [3]): n.s.
Fold change, EBP (NM_006579) transcript (A549 cells [2]; [3]): −2.80
Fold change, EEF2 (NM_001901) transcript (A549 cells [2]; [3]): 2.31
Fold change, FDXK (NM_003681) transcript (A549 cells [2]; [3]): −1.89
Fold change, FN3KRP (NM_024619) transcript (A549 cells [2]; [3]): −1.35
Fold change, HDLBP (NM_005336) transcript (A549 cells [2]; [3]): 1.69
Fold change, HGD (NM_000187) transcript (A549 cells [2]; [3]): −2.15
Fold change, IL6R (NM_000565) transcript (A549 cells [2]; [3]): 2.94
Fold change, KHSRP (NM_003685) transcript (A549 cells [2]; [3]): −2.29
Fold change, LOC389727 (NM_372092) transcript (A549 cells [2]; [3]): n.s.
Fold change, MAT2A (NM_005911) transcript (A549 cells [2]; [3]): −3.47
Fold change, MOL1 (NM_021960) transcript (A549 cells [2]; [3]): −1.35
Fold change, MPP6 (NM_016447) transcript (A549 cells [2]; [3]): n.s.
Fold change, OSTCL (NM_145303) transcript (A549 cells [2]; [3]): 2.25
Fold change, P5MC5 (NM_002805) transcript (A549 cells [2]; [3]): −2.20
Fold change, PLK1S1 (NM_018474) transcript (A549 cells [2]; [3]): 1.99
Fold change, PPM1J (NM_005167) transcript (A549 cells [2]; [3]): n.s.
Fold change, RNF26 (NM_032015) transcript (A549 cells [2]; [3]): n.s.
Fold change, RRAD (NM_004185) transcript (A549 cells [2]; [3]): n.s.
Fold change, SEMA3G (NM_000379) transcript (A549 cells [2]; [3]): n.s.
Fold change, SLC22A16AS (NM_007105) transcript (A549 cells [2]; [3]): −1.40
Fold change, SOCS6 (NM_004232) transcript (A549 cells [2]; [3]): n.s.
Fold change, TMED1 (NM_006858) transcript (A549 cells [2]; [3]): n.s.
Fold change, TRIP4 (NM_016213) transcript (A549 cells [2]; [3]): 1.83
Fold change, UBE2L3 (NM_003347) transcript (A549 cells [2]; [3]): −1.48
Fold change, UBE21 (NM_014176) transcript (A549 cells [2]; [3]): −2.92
Fold change, W282 (NM_018029) transcript (A549 cells [2]; [3]): n.s.
Fold change, ADAR (NM_001111) transcript (A549 cells [2]; [4]): −1.45
Fold change, ALDH7AT (NM_001182) transcript (A549 cells [2]; [4]): −1.98
Fold change, CD151 (NM_004357) transcript (A549 cells [2]; [4]): n.s.
Fold change, CLIC1 (NM_001288) transcript (A549 cells [2]; [4]): n.s.
Fold change, COMMO9 (NM_014186) transcript (A549 cells [2]; [4]): n.s.
Fold change, COX5B (NM_001802) transcript (A549 cells [2]; [4]): −1.61
Fold change, COX7C (NM_001867) transcript (A549 cells [2]; [4]): n.s.
Fold change, DHRSX (NM_145177) transcript (A549 cells [2]; [4]): n.s.
Fold change, EBP (NM_006579) transcript (A549 cells [2]; [4]): −3.16
Fold change, EEF2 (NM_001901) transcript (A549 cells [2]; [4]): 2.62
Fold change, FDXK (NM_003681) transcript (A549 cells [2]; [4]): −1.91
Fold change, FN3KRP (NM_024619) transcript (A549 cells [2]; [4]): −1.67
Fold change, HDLBP (NM_005336) transcript (A549 cells [2]; [4]): 1.99
Fold change, HGD (NM_000187) transcript (A549 cells [2]; [4]): −4.23
Fold change, IL6R (NM_000565) transcript (A549 cells [2]; [4]): 3.52
Fold change, KHSRP (NM_003685) transcript (A549 cells [2]; [4]): −2.23
Fold change, LOC389727 (NM_372092) transcript (A549 cells [2]; [4]): n.s.
Fold change, MAT2A (NM_005911) transcript (A549 cells [2]; [4]): −2.96
Fold change, MOL1 (NM_021960) transcript (A549 cells [2]; [4]): −1.58
Fold change, MPP6 (NM_016447) transcript (A549 cells [2]; [4]): n.s.
Fold change, OSTCL (NM_145303) transcript (A549 cells [2]; [4]): 3.08
Fold change, P5MC5 (NM_002805) transcript (A549 cells [2]; [4]): −2.27
Fold change, PLK1S1 (NM_018474) transcript (A549 cells [2]; [4]): 1.93
Fold change, PPM1J (NM_005167) transcript (A549 cells [2]; [4]): n.s.
Fold change, RNF26 (NM_032015) transcript (A549 cells [2]; [4]): −2.11
Fold change, RRAD (NM_004185) transcript (A549 cells [2]; [4]): 1.55
Fold change, SEMA3G (NM_000379) transcript (A549 cells [2]; [4]): n.s.
Fold change, SLC22A16AS (NM_007105) transcript (A549 cells [2]; [4]): −1.60
Fold change, SOCS6 (NM_004232) transcript (A549 cells [2]; [4]): n.s.
Fold change, TMED1 (NM_006858) transcript (A549 cells [2]; [4]): n.s.
Fold change, TRIP4 (NM_016213) transcript (A549 cells [2]; [4]): 1.65
Fold change, UBE2L3 (NM_003347) transcript (A549 cells [2]; [4]): −1.47
Fold change, UBE21 (NM_014176) transcript (A549 cells [2]; [4]): −4.38
Fold change, W282 (NM_018029) transcript (A549 cells [2]; [4]): n.s.

Cc1ccc(-c2cn3c4c(sc3n2)CCCC4)cc1 [cyclic pifithrin-α]
protection against CDDP, COX inhibition with sodium azide combined with TP53 inhibition with cyclic pifithrin-α (A549 cells [1]): synergistic protection against CDDP
